From ChEMBL document CHEMBL4270519, “Synthesis and biological evaluation of β2-adrenoceptor agonists bearing the 2-amino-2-phenylethanol scaffold” (Eur J Med Chem, 2018) come the findings set out here.

Data set [1] has as its target T1, Beta-2 adrenergic receptor (Homo sapiens, UniProt P07550). Put plainly: Agonist activity at human beta2 adrenergic receptor expressed in HEK293 cells assessed as increase in cAMP accumulation after 60 mins by HTRF assay. It is filed as functional, cell-based. Background: Cyclic AMP is a second messenger, typically raised through Gs and lowered through Gi signalling.
Target sequence in this assay (P07550 whole entry): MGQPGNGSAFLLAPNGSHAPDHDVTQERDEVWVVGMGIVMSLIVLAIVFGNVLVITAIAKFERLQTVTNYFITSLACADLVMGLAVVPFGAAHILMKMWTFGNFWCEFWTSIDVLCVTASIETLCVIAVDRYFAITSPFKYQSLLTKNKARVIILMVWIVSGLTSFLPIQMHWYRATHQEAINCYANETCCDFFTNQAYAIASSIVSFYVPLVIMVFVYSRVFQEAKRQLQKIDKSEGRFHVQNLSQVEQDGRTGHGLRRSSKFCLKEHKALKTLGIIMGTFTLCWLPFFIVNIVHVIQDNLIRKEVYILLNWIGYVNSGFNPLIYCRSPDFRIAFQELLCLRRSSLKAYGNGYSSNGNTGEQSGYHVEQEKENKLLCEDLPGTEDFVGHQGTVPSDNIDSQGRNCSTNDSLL

The test system of data set [2] is Smooth muscle of trachea. Put plainly: Reduction in histamine-induced muscle contractions in Dunkin-Hartley guinea pig tracheal smooth muscle ring by measuring muscle tone relative to control. The following applies: Cavia porcellus. It is filed as functional.
Data set [3] concerns the target Beta-3 adrenergic receptor (Homo sapiens, UniProt P13945). Put plainly: Agonist activity at human beta3 adrenergic receptor expressed in HEK293 cells assessed as increase in cAMP accumulation after 60 mins by HTRF assay. It is filed as functional, cell-based.
The subject of data set [4] is Smooth muscle of trachea. Put plainly: Intrinsic activity at Dunkin-Hartley guinea pig tracheal smooth muscle ring assessed as reduction in histamine-induced muscle contractions by measuring muscle tone relative to isoprenaline. The class given is functional, Cavia porcellus.
Data set [5] addresses Beta-1 adrenergic receptor (Homo sapiens, UniProt P08588). As to the kind of experiment: Agonist activity at human beta1 adrenergic receptor expressed in HEK293 cells assessed as increase in cAMP accumulation after 60 mins by HTRF assay. The class given is functional, cell-based.
Data set [6] has as its target T1, Beta-2 adrenergic receptor. Put plainly: Intrinsic activity at human beta2 adrenergic receptor in HEK293 cells assessed as increase in cAMP accumulation after 60 mins by HTRF assay relative to isoprenaline. It is filed as functional, cell-based.
Target sequence in this assay (P07550 whole entry, looked up): as the sequence (P07550 whole entry) above
The species named for another data set is Homo sapiens. As to the kind of experiment: Selectivity ratio of pEC50 for human beta2 adrenergic receptor expressed in HEK293 cells to pEC50 for human beta1 adrenergic receptor expressed in HEK293 cells. The class given is cell-based.
For data set [7], the system named is Smooth muscle of trachea. Put plainly: Reduction in histamine-induced muscle contractions in Dunkin-Hartley guinea pig tracheal smooth muscle ring by measuring muscle tone. The class given is functional, Cavia porcellus.
Data set [8] is described as follows: Apparent permeability from apical to basolateral side in human Caco2 cells at 2 uM after 2 hrs by LC/MS/MS analysis. It is filed as ADME, cell-based. The following applies: Caco-2. Background: Caco-2 cells form a polarised layer with tight junctions and transporters.
Data set [9] in a line: Intrinsic clearance in human liver microsomes at 10 uM after 10 mins in presence of NADPH by LC/MS/MS analysis. The class given is ADME, microsome. The following applies: read-out: CLH. For orientation: Liver microsomes are vesicles of endoplasmic reticulum, rich in cytochrome P450 enzymes.
The nature of data set [10]: Half life in human liver microsomes at 10 uM by LC/MS/MS analysis. It is filed as ADME, microsome.
Data set [11] can be described thus: Apparent permeability from basolateral to apical side in human Caco2 cells at 2 uM after 2 hrs by LC/MS/MS analysis. It is filed as ADME, cell-based. The following applies: Caco-2.

As a reminder, the Emax is the maximal effect, on the per cent scale that the assay sets. The term Papp A→B denotes the apparent permeability from the apical to the basolateral side of a cell layer. Usually half-life stands for the time in which the quantity being followed falls by half. A higher half-life goes with slow decline. Usually Papp B→A stands for how fast a substance crosses the layer from the basolateral side.

Structures are written as SMILES.

Beta-1 adrenergic receptor, sequence (P08588 whole entry): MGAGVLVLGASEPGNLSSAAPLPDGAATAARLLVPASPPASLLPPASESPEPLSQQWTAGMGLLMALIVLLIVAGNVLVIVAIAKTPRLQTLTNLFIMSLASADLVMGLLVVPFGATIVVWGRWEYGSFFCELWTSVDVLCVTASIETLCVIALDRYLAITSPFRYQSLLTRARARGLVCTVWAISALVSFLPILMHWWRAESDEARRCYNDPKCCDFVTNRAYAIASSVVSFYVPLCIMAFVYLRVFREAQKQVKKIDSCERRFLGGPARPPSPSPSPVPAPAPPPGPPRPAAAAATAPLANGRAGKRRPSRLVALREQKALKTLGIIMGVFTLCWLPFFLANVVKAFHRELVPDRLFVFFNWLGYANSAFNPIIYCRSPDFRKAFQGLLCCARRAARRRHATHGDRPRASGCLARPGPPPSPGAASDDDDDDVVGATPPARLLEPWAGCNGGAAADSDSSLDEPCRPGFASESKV
Beta-3 adrenergic receptor, sequence (P13945 whole entry): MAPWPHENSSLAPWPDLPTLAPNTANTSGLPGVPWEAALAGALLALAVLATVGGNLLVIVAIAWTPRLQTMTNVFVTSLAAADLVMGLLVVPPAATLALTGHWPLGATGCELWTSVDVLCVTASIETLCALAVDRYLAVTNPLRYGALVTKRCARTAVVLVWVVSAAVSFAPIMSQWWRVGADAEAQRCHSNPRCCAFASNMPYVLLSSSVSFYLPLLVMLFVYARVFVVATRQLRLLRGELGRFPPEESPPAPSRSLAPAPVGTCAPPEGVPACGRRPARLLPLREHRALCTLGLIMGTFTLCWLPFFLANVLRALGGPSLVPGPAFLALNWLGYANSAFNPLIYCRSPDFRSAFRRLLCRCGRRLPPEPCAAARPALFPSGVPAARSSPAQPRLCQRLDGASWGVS

In the case of `CCCCC(=O)Nc1ccc(CCNC(CO)c2ccc(O)c3[nH]c(=O)ccc23)cc1` (stereo not drawn), the EC50 in data set [1] (read-out: pEC50 (converted)) was 316 nM.

As to `CC(C)CC(=O)Nc1ccc(CCNC(CO)c2ccc(O)c3[nH]c(=O)ccc23)cc1` (stereo not drawn), in data set [1] (read-out: pEC50 (converted)), the EC50 was 631 nM.

On to `COc1ccccc1CCNC(CO)c1ccc(O)c2[nH]c(=O)ccc12` (stereo not drawn), for which, in the data set with Smooth muscle of trachea [2], the Emax is 111%. In addition, the EC50 in [3] is more than 10000 nM; in data set [1] (read-out: pEC50 (converted)), 5.01 nM; in data set [5] it was more than 10000 nM. Moreover, the results for the Intrinsic activity (with Smooth muscle of trachea [4]; in [6]) were 44% and 48.6%, respectively. The Ratio in the data set filed under Homo sapiens was more than 3.3. The same molecule gave a pD2 with Smooth muscle of trachea [7] of 6.03.

With `COc1cccc(CCNC(CO)c2ccc(O)c3[nH]c(=O)ccc23)c1` (stereo not drawn), the EC50 was 2 nM in data set [1] (read-out: pEC50 (converted)) and 631 nM in data set [5]. Besides, the Intrinsic activity in [6] was determined as 52.5%. Also, in the data set filed under Homo sapiens, the Ratio was 2.62.

Consider `O=c1ccc2c(C(CO)NCCCCCCOCCCCc3ccccc3)ccc(O)c2[nH]1` (stereo not drawn), for which the values for the EC50 in [1] (read-out: pEC50 (converted)) and in data set [5] were 5.01 nM and more than 10000 nM, respectively. Besides, the Ratio in the data set listed under Homo sapiens is more than 3.31.

Consider `COc1ccc(CCNC(CO)c2ccc(O)c3[nH]c(=O)ccc23)cc1` (stereo not drawn), for which the EC50 was 20 nM in [1] (read-out: pEC50 (converted)) and more than 10000 nM in data set [5]. The Ratio in the data set listed under Homo sapiens is more than 2.71.

With `O=c1ccc2c(C(CO)NCCc3c[nH]c4ccccc34)ccc(O)c2[nH]1` (stereo not drawn), the EC50 in data set [1] (read-out: pEC50 (converted)) was 316 nM.

For the molecule `O=c1ccc2c(C(CO)NCCc3ccc(Cl)cc3)ccc(O)c2[nH]1` (stereo not drawn), the EC50 was 39.8 nM in [1] (read-out: pEC50 (converted)) and 1580 nM in data set [5]. Moreover, in the data set filed under Homo sapiens, the Ratio amounted to 1.6.

As to `O=c1ccc2c(C(CO)NCCCc3ccccc3)ccc(O)c2[nH]1` (stereo not drawn), the EC50 in [3] is more than 10000 nM; in data set [1] (read-out: pEC50 (converted)), 10 nM; in data set [5], 832 nM. In addition, the Intrinsic activity in [6] is 55.8%. Also, the Ratio in the data set listed under Homo sapiens was 1.89.

Turning to `O=c1ccc2c(C(CO)NCCCCOCCCCc3ccccc3)ccc(O)c2[nH]1` (stereo not drawn), in [1] (read-out: pEC50 (converted)), the EC50 was 251 nM.

For the molecule `CC(C)(Cc1ccccc1)NC(CO)c1ccc(O)c2[nH]c(=O)ccc12` (stereo not drawn), the EC50 in data set [1] (read-out: pEC50 (converted)) was 50.1 nM; in data set [5], more than 10000 nM. In the data set filed under Homo sapiens, the Ratio was more than 2.28.

For the molecule `O=c1ccc2c(C(CO)NCCc3cccc(Cl)c3)ccc(O)c2[nH]1` (stereo not drawn), the EC50 in data set [1] (read-out: pEC50 (converted)) is 2.51 nM; in data set [5], 3160 nM. For the same molecule, the Ratio in the data set filed under Homo sapiens turned out to be 3.05.

With `O=C(Cc1ccccc1)Nc1ccc(CCNC(CO)c2ccc(O)c3[nH]c(=O)ccc23)cc1` (stereo not drawn), the EC50 in data set [1] (read-out: pEC50 (converted)) is 3.98 nM.

Turning to `O=c1ccc2c(C(CO)NCC(c3ccccc3)c3ccccc3)ccc(O)c2[nH]1` (stereo not drawn), in [1] (read-out: pEC50 (converted)), the EC50 was 631 nM.

Consider `O=c1ccc2c([C@@H](CO)NCCc3ccc(O)cc3)ccc(O)c2[nH]1`, for which the Papp A→B at 2 h, 2 µM in data set [8] came to 0.43 ×10⁻⁶ cm/s. The CLint scaled at 10 µM in data set [9] is 11.5 mL/min/kg. Also, the EC50 in data set [1] (read-out: EC50) worked out at 1.26 nM. Besides, the half-life at 10 µM in data set [10] was found to be 1.81 h. Besides, the Papp B→A at 2 h, 2 µM in data set [11] worked out at 0.74 ×10⁻⁶ cm/s.

In the case of `CC(C)NCC(O)c1ccc(O)c(O)c1` (stereo not drawn) [ISOPROTERENOL], the Emax with Smooth muscle of trachea [2] stood at 254%. For the same molecule, in [9], the CLint scaled at 10 µM turned out to be 112 mL/min/kg. For the same molecule, the half-life at 10 µM in [10] was 0.205 h.

With `O=c1ccc2c([C@H](CO)NCCc3ccc(O)cc3)ccc(O)c2[nH]1`, in [1] (read-out: EC50), the EC50 came out at 328 nM.

Regarding `O=C(Nc1ccc(CCNC(CO)c2ccc(O)c3[nH]c(=O)ccc23)cc1)c1ccccc1` (stereo not drawn), in [1] (read-out: pEC50 (converted)), the EC50 is 50.1 nM.

For the molecule `O=c1ccc2c(C(CO)NCCc3ccccc3O)ccc(O)c2[nH]1` (stereo not drawn), the EC50 is 10 nM in data set [1] (read-out: pEC50 (converted)) and more than 10000 nM in [5]. Also, in data set [6], the Intrinsic activity stood at 54.2%. Also, the Ratio in the data set filed under Homo sapiens is more than 3.03.

Turning to `CCc1cc2c(cc1CC)CC(NC(CO)c1ccc(O)c3[nH]c(=O)ccc13)C2` (stereo not drawn), the EC50 in [1] (read-out: pEC50 (converted)) is 316 nM.

For `O=c1ccc2c(C(CO)NCCc3cccc(O)c3)ccc(O)c2[nH]1` (stereo not drawn), the EC50 in data set [1] (read-out: pEC50 (converted)) is 794 nM.

Consider `O=c1ccc2c(C(CO)NCCCCc3ccccc3)ccc(O)c2[nH]1` (stereo not drawn), for which the figures for the EC50 in [1] (read-out: pEC50 (converted)) and in [5] were 12.6 nM and more than 10000 nM, respectively. Also, the Ratio in the data set listed under Homo sapiens is more than 2.86.

Turning to `O=c1ccc2c(C(CO)NCCc3ccccc3Cl)ccc(O)c2[nH]1` (stereo not drawn), the values for the EC50 in [1] (read-out: pEC50 (converted)) and in [5] were 2 nM and more than 10000 nM, respectively. Also, in the data set listed under Homo sapiens, the Ratio is more than 3.66.

In the data set on Smooth muscle of trachea [2], `O=c1ccc2c(C(CO)NCCc3ccccc3)ccc(O)c2[nH]1` (stereo not drawn) had an Emax of 255%. Besides, the results for the EC50 in [3], in data set [1] (read-out: pEC50 (converted)) and in data set [5] were more than 10000 nM, 1.58 nM and 832 nM, respectively. Moreover, the results for the Intrinsic activity (in the data set on Smooth muscle of trachea [4]; in data set [6]) were 100% and 57.4%, respectively. Also, the Ratio in the data set filed under Homo sapiens came to 2.72. Further, in the data set with Smooth muscle of trachea [7], the pD2 was determined as 7.81.

As to `CC(C)C(=O)Nc1ccc(CCNC(CO)c2ccc(O)c3[nH]c(=O)ccc23)cc1` (stereo not drawn), the EC50 in [1] (read-out: pEC50 (converted)) is 50.1 nM.

In turn, `O=c1ccc2c(C(CO)NCCc3ccc(O)cc3)ccc(O)c2[nH]1` (stereo not drawn) showed an Emax in the data set with Smooth muscle of trachea [2] of 250%. Further, the EC50 is more than 10000 nM in data set [3], 3.16 nM in [1] (read-out: pEC50 (converted)) and more than 10000 nM in [5]. The Intrinsic activity amounted to 98% with Smooth muscle of trachea [4] and 46.3% in data set [6]. Further, the Ratio in the data set filed under Homo sapiens was more than 3.5. The molecule also gave a pD2 in the data set with Smooth muscle of trachea [7] of 7.98.

For `Nc1ccc(CCNC(CO)c2ccc(O)c3[nH]c(=O)ccc23)cc1` (stereo not drawn), the EC50 in data set [1] (read-out: pEC50 (converted)) is 79.4 nM.
